Consider three compounds from ChEMBL document CHEMBL1944631, “Solid-state NMR analysis of calcium and d-mannose binding of BMY-28864, a water-soluble analogue of pradimicin A” (Bioorg Med Chem Lett, 2012).

Data set [1] is described as follows: Solubility of the compound in phosphate buffered saline at pH 7.4. In kind it is physicochemical.
Data set [2] in a line: Binding affinity to [13C6]-methyl alpha-D-mannopyranoside by 2-DDARR in presence of Ca2+ relative to TMS.
The nature of data set [3]: Binding affinity to methyl alpha-D-mannopyranoside at -129 ppm by Solid-state CP/MAS 113Cd NMR spectroscopy.
A short description of data set [4]: Binding affinity to methyl alpha-D-mannopyranoside at -135 ppm by Solid-state CP/MAS 113Cd NMR spectroscopy.

One may read the solubility as the concentration that dissolves in the medium under given conditions. Higher therefore signals much dissolved substance.

Values after ≈ are worked out from the molar mass of the structure shown. Active and inactive are the calls of the source. The calls are words filed in the database; no cut-off is given here.

In data set [1], `COc1cc(O)c2c(c1)C(=O)c1c(cc3c(c1O)-c1c(cc(C)c(C(=O)N[C@H](CO)C(=O)O)c1O)[C@H](O[C@@H]1O[C@H](C)[C@H](N(C)C)[C@H](O[C@@H]4OC[C@@H](O)[C@H](O)[C@H]4O)[C@H]1O)[C@H]3O)C2=O` came in with a solubility of more than 20000 µg/mL. Also, the outcome in data set [2] and in data set [3] was Active.
For `CN[C@@H]1[C@H](O[C@@H]2OC[C@@H](O)[C@H](O)[C@H]2O)[C@@H](O)[C@H](O[C@H]2c3cc(C)c(C(=O)N[C@H](CO)C(=O)O)c(O)c3-c3c(cc4c(c3O)C(=O)c3cc(OC)cc(O)c3C4=O)[C@@H]2O)O[C@@H]1C`, the solubility in data set [1] worked out at 260 µg/mL (≈ 303 µM).
As to `CN[C@@H]1[C@H](O[C@@H]2OC[C@@H](O)[C@H](O)[C@H]2O)[C@@H](O)[C@H](O[C@H]2c3cc(C)c(C(=O)N[C@H](C)C(=O)O)c(O)c3-c3c(cc4c(c3O)C(=O)c3cc(OC)cc(O)c3C4=O)[C@@H]2O)O[C@@H]1C` [PRADIMICIN A], the result in data set [4] and in data set [2] was Active. In addition, the concentration in solution in data set [1] (solubility) was 20 µg/mL (≈ 23.8 µM).
